According to patent publication US20050197350A1, “Novel quinoline, tetrahydroquinazoline, and pyrimidine derivatives and methods of treatment related to the use thereof” (TAISHO PHARMACEUTICAL CO., LTD., priority 2003, published 2005):

These molecules were tested on MCH receptors (assay: MCH receptor activity class (method not given)). Settings: activity class per percent of control at 10^-7 M or IC50.
For COc1cc(CC(=O)N[C@H]2CC[C@@H](Nc3nc4c(c(N(C)C)n3)CCCC4)CC2)cc(OC)c1 [compound 978], the class was 3 (Class 3 The value of percent of control at 10^−7 M was more than 60% or the value of IC50 was more than 200 nM.).
With CN(C)c1nc(N[C@H]2CC[C@@H](NC(=O)Cc3cc(C(C)(C)C)c(O)c(C(C)(C)C)c3)CC2)nc2c1CCCC2 [compound 979] the class was 3 (Class 3 The value of percent of control at 10^−7 M was more than 60% or the value of IC50 was more than 200 nM.).
For CN(C)c1cccc(C(=O)N[C@H]2CC[C@@H](Nc3nc4c(c(N(C)C)n3)CCCC4)CC2)c1 [compound 981, 3-(dimethylamino)-N-(cis-4-{[4-(dimethylamino)-5,6,7,8-tetrahydroquinazolin-2-yl]amino}cyclohexyl)benzamide], the class was 2 (Class 2: The value of percent of control at 10^−7 M was from 40% to 60% or the value of IC′50 was from 50 nM to 200 nM.).
With CN(C)c1nc(N[C@H]2CC[C@@H](NC(=O)c3cc(Br)c(Br)o3)CC2)nc2c1CCCC2 [compound 982] the class was 1 (Class 1: The value of percent of control at 10^−7 M was less than 40% or the value of IC50 was less than 50 nM.).
CN(C)c1nc(N[C@H]2CC[C@@H](NC(=O)CCC(=O)c3ccc(F)cc3)CC2)nc2c1CCCC2 [compound 983] was tested, and the class was 2 (Class 2: The value of percent of control at 10^−7 M was from 40% to 60% or the value of IC′50 was from 50 nM to 200 nM.).
In the case of CC(C(=O)N[C@H]1CC[C@@H](Nc2nc3c(c(N(C)C)n2)CCCC3)CC1)c1ccc(N2Cc3ccccc3C2=O)cc1 (stereo partly drawn) [compound 985, N-(cis-4-{[4-(dimethylamino)-5,6,7,8-tetrahydroquinazolin-2-yl]amino}cyclohexyl)-2-[4-(1-oxo-1,3-dihydro-2H-isoindol-2-yl)pheny]propanamide], the class is reported as 2 (Class 2: The value of percent of control at 10^−7 M was from 40% to 60% or the value of IC′50 was from 50 nM to 200 nM.).
In the case of CN(C)c1nc(N[C@H]2CC[C@@H](NC(=O)Cc3c[nH]c4ccccc34)CC2)nc2c1CCCC2 [compound 986, N-(cis-4-{[4-(diniethylamino)-5,6,7,8-tetrahydroquinazolin-2-yl]amino}cyclohexyl)-2-(1H-indol-3-yl)acetamide], the class is reported as 1 (Class 1: The value of percent of control at 10^−7 M was less than 40% or the value of IC50 was less than 50 nM.).

Same assay, conditions: class by percent of control at 10^-7 M or IC50
For CN(C)c1ccnc(N[C@H]2CC[C@@H](CNC(=O)C3c4ccccc4Oc4ccccc43)CC2)n1 [compound 947, N-[(cis-4-{[4-(dimethylamino)pyrimidin-2-yl]amino}cyclohexyl)methyl]-9H-xanthene-9-carboxamide], the class was 1 (Class 1: The value of percent of control at 10^−7 M was less than 40% or the value of IC50 was less than 50 nM.).
In the case of CN(C)c1ccnc(N[C@H]2CC[C@@H](CNC(=O)Cc3csc4ccccc34)CC2)n1 [compound 948], the class is reported as 1 (Class 1: The value of percent of control at 10^−7 M was less than 40% or the value of IC50 was less than 50 nM.).
For CN(C)c1nc(N[C@H]2CC[C@@H](NC(=O)c3ccc(Br)s3)CC2)nc2c1CCCC2 [compound 949], the class was 2 (Class 2: The value of percent of control at 10^−7 M was from 40% to 60% or the value of IC′50 was from 50 nM to 200 nM.).
In the case of CN(C)c1nc(N[C@H]2CC[C@@H](NC(=O)Cc3c(Cl)ccc(Cl)c3Cl)CC2)nc2c1CCCC2 [compound 950], the class is reported as 2 (Class 2: The value of percent of control at 10^−7 M was from 40% to 60% or the value of IC′50 was from 50 nM to 200 nM.).
For CN(C)c1nc(N[C@H]2CC[C@@H](NC(=O)Cc3ccc(F)cc3Cl)CC2)nc2c1CCCC2 [compound 951, 2-(2-chloro-4-fluorophenyl)-N-(cis-4-{[4-(dimethylamino)-5,6,7,8-tetrahydroquinazolin-2-yl]amino}cyclohexyl)acetamide], the class was 1 (Class 1: The value of percent of control at 10^−7 M was less than 40% or the value of IC50 was less than 50 nM.).
In the case of CN(C)c1nc(N[C@H]2CC[C@@H](NC(=O)c3ccc(-c4ccc(Cl)cc4[N+](=O)[O-])o3)CC2)nc2c1CCCC2 [compound 952, 5-(4-chloro-2-nitrophenyl)-N-(cis-4-{[4-(dimethylamino)-5,6,7,8-tetrahydroquinazolin-2-yl]amino}cyclohexyl)-2-furamide], the class is reported as 1 (Class 1: The value of percent of control at 10^−7 M was less than 40% or the value of IC50 was less than 50 nM.).
With CN(C)c1nc(N[C@H]2CC[C@@H](NC(=O)c3ccc(Cl)s3)CC2)nc2c1CCCC2 [compound 953] the class was 1 (Class 1: The value of percent of control at 10^−7 M was less than 40% or the value of IC50 was less than 50 nM.).
CN(C)c1nc(N[C@H]2CC[C@@H](NC(=O)CCc3ccccc3O)CC2)nc2c1CCCC2 [compound 955] was tested, and the class was 2 (Class 2: The value of percent of control at 10^−7 M was from 40% to 60% or the value of IC′50 was from 50 nM to 200 nM.).
With CN(C)c1nc(N[C@H]2CC[C@@H](NC(=O)c3ccc(I)o3)CC2)nc2c1CCCC2 [compound 956] the class was 1 (Class 1: The value of percent of control at 10^−7 M was less than 40% or the value of IC50 was less than 50 nM.).
CN(C)c1nc(N[C@H]2CC[C@@H](NC(=O)Cc3ccccc3I)CC2)nc2c1CCCC2 [compound 957] was tested, and the class was 2 (Class 2: The value of percent of control at 10^−7 M was from 40% to 60% or the value of IC′50 was from 50 nM to 200 nM.).
For COc1ccc2[nH]c(C)c(CC(=O)N[C@H]3CC[C@@H](Nc4nc5c(c(N(C)C)n4)CCCC5)CC3)c2c1 [compound 958], the class was 2 (Class 2: The value of percent of control at 10^−7 M was from 40% to 60% or the value of IC′50 was from 50 nM to 200 nM.).
For CN(C)c1nc(N[C@H]2CC[C@@H](NC(=O)/C=C/c3cccc([N+](=O)[O-])c3)CC2)nc2c1CCCC2 [compound 959], the class was 3 (Class 3 The value of percent of control at 10^−7 M was more than 60% or the value of IC50 was more than 200 nM.).
With CN(C)c1nc(N[C@H]2CC[C@@H](NC(=O)c3ccccc3Cc3ccccc3)CC2)nc2c1CCCC2 [compound 961] the class was 2 (Class 2: The value of percent of control at 10^−7 M was from 40% to 60% or the value of IC′50 was from 50 nM to 200 nM.).
CN(C)c1nc(N[C@H]2CC[C@@H](NC(=O)C(c3ccc(Cl)cc3)c3ccc(Cl)cc3)CC2)nc2c1CCCC2 [compound 962] was tested, and the class was 1 (Class 1: The value of percent of control at 10^−7 M was less than 40% or the value of IC50 was less than 50 nM.).
Cc1ccc(-c2ccc(C(=O)N[C@H]3CC[C@@H](Nc4nc5c(c(N(C)C)n4)CCCC5)CC3)o2)c([N+](=O)[O-])c1 [compound 963] was tested, and the class was 2 (Class 2: The value of percent of control at 10^−7 M was from 40% to 60% or the value of IC′50 was from 50 nM to 200 nM.).
With CN(C)c1nc(N[C@H]2CC[C@@H](NC(=O)c3ccc([N+](=O)[O-])s3)CC2)nc2c1CCCC2 [compound 964] the class was 1 (Class 1: The value of percent of control at 10^−7 M was less than 40% or the value of IC50 was less than 50 nM.).
Cc1cc(C(=O)N[C@H]2CC[C@@H](Nc3nc4c(c(N(C)C)n3)CCCC4)CC2)ccc1[N+](=O)[O-] [compound 965] was tested, and the class was 1 (Class 1: The value of percent of control at 10^−7 M was less than 40% or the value of IC50 was less than 50 nM.).
With COc1cc(C(=O)N[C@H]2CC[C@@H](Nc3nc4c(c(N(C)C)n3)CCCC4)CC2)ccc1[N+](=O)[O-] [compound 966] the class was 1 (Class 1: The value of percent of control at 10^−7 M was less than 40% or the value of IC50 was less than 50 nM.).
CN(C)c1nc(N[C@H]2CC[C@@H](NC(=O)c3cn(Cc4ccccc4)c4ccccc34)CC2)nc2c1CCCC2 [compound 967] was tested, and the class was 3 (Class 3 The value of percent of control at 10^−7 M was more than 60% or the value of IC50 was more than 200 nM.).
In the case of CC(=O)c1cccc(C(=O)N[C@H]2CC[C@@H](Nc3nc4c(c(N(C)C)n3)CCCC4)CC2)c1 [compound 968], the class is reported as 1 (Class 1: The value of percent of control at 10^−7 M was less than 40% or the value of IC50 was less than 50 nM.).
For CN(C)c1nc(N[C@H]2CC[C@@H](NC(=O)C3CCCC[C@H]3C(=O)c3ccccc3)CC2)nc2c1CCCC2 (stereo partly drawn) [compound 969], the class was 3 (Class 3 The value of percent of control at 10^−7 M was more than 60% or the value of IC50 was more than 200 nM.).
For CN(C)c1nc(N[C@H]2CC[C@@H](NC(=O)c3ccc(Br)o3)CC2)nc2c1CCCC2 [compound 970, 5-bromo-N-(cis-4-{[4-(dimethylamino)-5,6,7,8-tetrahydroquinazolin-2-yl]amino}cyclohexyl)-2-furamide], the class was 1 (Class 1: The value of percent of control at 10^−7 M was less than 40% or the value of IC50 was less than 50 nM.).
For CN(C)c1nc(N[C@H]2CC[C@@H](NC(=O)CCC3CCCCC3)CC2)nc2c1CCCC2 [compound 971], the class was 3 (Class 3 The value of percent of control at 10^−7 M was more than 60% or the value of IC50 was more than 200 nM.).
In the case of Cc1ccnc(SCC(=O)N[C@H]2CC[C@@H](Nc3nc4c(c(N(C)C)n3)CCCC4)CC2)n1 [compound 972], the class is reported as 2 (Class 2: The value of percent of control at 10^−7 M was from 40% to 60% or the value of IC′50 was from 50 nM to 200 nM.).
For CN(C)c1nc(N[C@H]2CC[C@@H](NC(=O)c3ccc(-c4ccc(Cl)cc4)o3)CC2)nc2c1CCCC2 [compound 973], the class was 1 (Class 1: The value of percent of control at 10^−7 M was less than 40% or the value of IC50 was less than 50 nM.).
With CN(C)c1nc(N[C@H]2CC[C@@H](NC(=O)CCc3ccc(Cl)c(Cl)c3)CC2)nc2c1CCCC2 [compound 974] the class was 3 (Class 3 The value of percent of control at 10^−7 M was more than 60% or the value of IC50 was more than 200 nM.).
CN(C)c1nc(N[C@H]2CC[C@@H](NC(=O)Cc3ccc(Cl)c(Cl)c3)CC2)nc2c1CCCC2 [compound 975] was tested, and the class was 1 (Class 1: The value of percent of control at 10^−7 M was less than 40% or the value of IC50 was less than 50 nM.).
COc1cc(CC(=O)N[C@H]2CC[C@@H](Nc3nc4c(c(N(C)C)n3)CCCC4)CC2)cc(OC)c1O [compound 976] was tested, and the class was 1 (Class 1: The value of percent of control at 10^−7 M was less than 40% or the value of IC50 was less than 50 nM.).
For CN(C)c1nc(N[C@H]2CC[C@@H](NC(=O)c3cc(Br)c(Br)s3)CC2)nc2c1CCCC2 [compound 977, 4,5-dibromo-N-(cis-4-{[4-(dimethylamino)-5,6,7,8-tetrahydroquinazolin-2-yl]amino}cyclohexyl)thiophene-2-carboxamide], the class was 2 (Class 2: The value of percent of control at 10^−7 M was from 40% to 60% or the value of IC′50 was from 50 nM to 200 nM.).
